Data on nine compounds can be found in US6057359A, “Spontaneously dispersible concentrates comprising esters of baccatin-III compounds having antitumor and antiviral activity” (Marigen S.A., priority 1997, dated 2000).

Assay [1] concerns Py6 cells (Virus transformed 3T3 mouse-fibroblasts). The experiment in a line: Test of cell toxicity / cytotoxicity of MARIGENOL concentrates on Py6 cells (plaque assay, serial dilution). As to conditions: for in dilution active up to 1: (microemulsion ME 1:100): dilution of ME 1:100, given in Mio. Type of assay: cell-based. The protocol:
A biological assay system using microtiter plates and serial dilutions has been developed. Batches of 10^4 tumour cells per ml were set up in culture medium RPMI 1640 and inactivated with 10% of fetal calf serum (GIBCO); they are spread at a density low enough to enable them to grow during the assay, in non-confluent monolayers. Samples are added after 6 to 24 hours, with 100 μl per row, to which 100 μl of medium are added in the first well. Half of this mixture is withdrawn, transferred into the next well and again treated with 100 μl of medium, etc.
[…] They are then stained and fixed using 0.1% crystal violet (Fluka, Buchs) in a solution of 70% of methanol, 1% of formaldehyde and 29% of water. The samples are evaluated under the microscope, magnification 300×. The greatest cytotoxic dilution is determined. The samples can also be evaluated quantitatively by means of scanning and absorption measurement in a spectrophotometer.
N.B.: On the subject of the eternalized Py6-cells cf.: "Biochemistry", Coordinating Editor Geoffrey L. Zubay, Addison-Wesley Publishing Company, 1983, p.1079.

The subject of a further assay is LEUKEMIA K 562. The experiment in a line: Vitality/proliferation test (Tritium), leukemia K 562. Type of assay: cell-based, human. As to conditions: controls 50'037 cpm. The text has this:
(§1) 4.0 Comparative assays with human tumor cell lines
(§2) VITALITY TEST/1%-MARIGENOL-CONCENTRATE
(§3) 1 × 10^4 cells per well
(§4) Proliferation test (Tritium: 1 μCi/well H^+)

The subject of the next assay is LEUKEMIA DAUDI-LINE. The experiment in a line: Vitality/proliferation test (Tritium), leukemia Daudi-line. As to conditions: controls 23'090 cpm. The assay is classed as cell-based, human.
From the text: as §1, §2, §3, §4

Assay [2] concerns HIV isolates from patients (strains 21/4 and 4/5). The experiment in a line: Effect on HIV infectivity, residual HIV titre (direct antiviral efficacy). Type of assay: cell-based. The protocol:
Aliquote amounts of two HIV isolates from patients (strains 21/4 and 4/5) resuspended in complete RPMI medium at a titre of 300 CCID50 /ml were incubated during 3 hours, +4° C. with MARIGENOL®-concentrate, in the form of an aqueous microemulsion, at concentrations ranging from 10^-2 to 10^-5 in complete medium, as well as with ("empty") carrier concentrate and with medium alone as controls.
After pre-incubation, residual HIV titre was assessed by the CCID50 method (Cell-culture infecting dose 50%). Briefly, serial twofold dilutions were prepared from each of the six virus suspensions, and 200 μl of each dilution were incubated for 90 minutes with MT-4 cell pellets prepared as stated before (see 7.1). At the end of incubation, pellets were brought to initial cell concentration by adding appropriate amounts of complete RPMI medium to each tube, whose content was then distributed into 8 wells of a flat-bottom microtitre plate in 200 μl volumes, each vertical row coresponding to a dilution. After 5 days of incubation, cell viability was assessed by the MTT test as stated above, and the HIV titre was expressed as the reciprocal of that dilution which infects 4 out of 8 wells (50%) in a row. A well was considered infected when its O.D. readout at 550 nm was lower than the average readout of 8 control wells minus 2.8 times the standard error of the mean (lower 95% confidence limit).

Consider 7-Baccatin III-all trans-retinoate, for which the results for the “in dilution active up to 1: (calculated on active substance content, A.S.)” value in assay [1] (24 h exposure), in assay [1] (48 h exposure) and in assay [1] (72 h exposure) were 12.8 Mio, 25.6 Mio and 25.6 Mio, respectively. Also, the Proliferation test % worked out at 0.8% in the assay on LEUKEMIA K 562 (10^-3); 1.6% in the assay on LEUKEMIA K 562 (10^-4); 15.0% with LEUKEMIA K 562 (10^-5); 1.1% in the assay on LEUKEMIA DAUDI-LINE (10^-3); 1.7% in the assay with LEUKEMIA DAUDI-LINE (10^-4); 52.7% in the assay on LEUKEMIA DAUDI-LINE (10^-5). The Proliferation test cpm in the assay on LEUKEMIA K 562 (10^-3) was 415 cpm; with LEUKEMIA K 562 (10^-4), 822 cpm; in the assay with LEUKEMIA DAUDI-LINE (10^-3), 256 cpm; in the assay with LEUKEMIA DAUDI-LINE (10^-4), 412 cpm.

For the compound `CCCCCCCCCCCC(=O)O[C@H]1C[C@@]2(O)[C@@H](OC(=O)c3ccccc3)[C@@H]3[C@]4(OC(C)=O)CO[C@@H]4C[C@H](OC(=O)CCCCCCCCCCC)[C@@]3(C)C(=O)[C@H](OC(C)=O)C(=C1C)C2(C)C` [BACCATIN III-DI-LAURATE, 7,13-Dilauroylbaccatin-III], the “in dilution active up to 1: (calculated on active substance content, A.S.)” value in assay [1] (24 h exposure) is 12.8 Mio; in assay [1] (48 h exposure), 12.8 Mio; in assay [1] (72 h exposure), 25.6 Mio. In addition, the Proliferation test % was found to be 1.1% in the assay on LEUKEMIA K 562 (10^-3); 1.3% in the assay with LEUKEMIA K 562 (10^-4); 6.1% with LEUKEMIA K 562 (10^-5); 1.4% in the assay with LEUKEMIA DAUDI-LINE (10^-3); 1.9% with LEUKEMIA DAUDI-LINE (10^-4); 38.3% in the assay on LEUKEMIA DAUDI-LINE (10^-5). The Proliferation test cpm in the assay with LEUKEMIA K 562 (10^-3) is listed as 585 cpm; in the assay with LEUKEMIA K 562 (10^-4) it was 651 cpm; in the assay with LEUKEMIA DAUDI-LINE (10^-3), 346 cpm; with LEUKEMIA DAUDI-LINE (10^-4), 455 cpm.

Take `C=CCCCCCCCCC(=O)O[C@H]1C[C@@]2(O)[C@@H](OC(=O)c3ccccc3)[C@@H]3[C@]4(OC(C)=O)CO[C@@H]4C[C@H](OC(=O)CCCCCCCCC=C)[C@@]3(C)C(=O)[C@H](OC(C)=O)C(=C1C)C2(C)C` [BACCATIN III-DI-UNDECENOATE, 7,13-Baccatin-III-diundecenoate]: the “in dilution active up to 1: (calculated on active substance content, A.S.)” value in assay [1] (24 h exposure) was 12.8 Mio; in assay [1] (48 h exposure), 25.6 Mio; in assay [1] (72 h exposure) it was 100 Mio. In assay [1] (72 h exposure), the “in dilution active up to 1: (microemulsion ME 1:100)” value came out at 1 Mio. Further, the Proliferation test % stood at 0.9% in the assay with LEUKEMIA K 562 (10^-3); 1.3% in the assay with LEUKEMIA K 562 (10^-4); 9.5% in the assay on LEUKEMIA K 562 (10^-5); 1.2% in the assay on LEUKEMIA DAUDI-LINE (10^-3); 2.8% with LEUKEMIA DAUDI-LINE (10^-4); 41.7% in the assay with LEUKEMIA DAUDI-LINE (10^-5). For the same compound, the Proliferation test cpm is reported as 466 cpm in the assay with LEUKEMIA K 562 (10^-3), 665 cpm in the assay on LEUKEMIA K 562 (10^-4), 293 cpm in the assay on LEUKEMIA DAUDI-LINE (10^-3) and 653 cpm in the assay with LEUKEMIA DAUDI-LINE (10^-4).

In the case of `CCCCCCCCCCCC(=O)Oc1cc(OC(=O)CCCCCCCCCCC)c2c(=O)cc(-c3ccccc3)oc2c1` [CHRYSIN-DI-LAURATE], the results for the “in dilution active up to 1: (calculated on active substance content, A.S.)” value in assay [1] (24 h exposure), in assay [1] (48 h exposure) and in assay [1] (72 h exposure) were 12.8 Mio, 51.2 Mio and 100 Mio, respectively. In addition, the “in dilution active up to 1: (microemulsion ME 1:100)” value in assay [1] (72 h exposure) worked out at 1 Mio.

As to `CCCCCCCCCCCCCCCC(=O)Oc1cc(OC(=O)CCCCCCCCCCCCCCC)c2c(=O)cc(-c3ccccc3)oc2c1` [CHRYSIN-DI-PALMITATE], the “in dilution active up to 1: (calculated on active substance content, A.S.)” value in assay [1] (24 h exposure) is 12.8 Mio; in assay [1] (48 h exposure), 51.2 Mio; in assay [1] (72 h exposure), 51.2 Mio.

For `C=CCCCCCCCCC(=O)O[C@H]1CC[C@@]2(C)C(=CC=C3[C@@H]4CC[C@H]([C@H](C)/C=C/[C@H](C)C(C)C)[C@@]4(C)CC[C@@H]32)C1` [ERGOSTERYL-10-UNDECENOATE, (3β, 22E)-Ergosta-5,7,22-triene-3-ol-10-undecenoate], the “RESIDUAL HIV TITRE (CCID50)” value in assay [2] (concentrate 1'000 ppm, active substance 10 ppm, mean titre of 2 strains, 3 h, +4° C.) is 25 CCID50. Besides, the “inhibition of HIV infectivity” value in assay [2] (pre-treatment with 1%-concentrate) is “somewhat less potent inhibition”.

With `CCCCCCCCCCCCCCCC(=O)Oc1ccc(-c2oc3cc(OC(=O)CCCCCCCCCCCCCCC)cc(OC(=O)CCCCCCCCCCCCCCC)c3c(=O)c2OC(=O)CCCCCCCCCCCCCCC)c(OC(=O)CCCCCCCCCCCCCCC)c1` [MOREN-PENTA-PALMITATE], the “in dilution active up to 1: (calculated on active substance content, A.S.)” value is given as 6.4 Mio in assay [1] (24 h exposure), 51.2 Mio in assay [1] (48 h exposure) and 51.2 Mio in assay [1] (72 h exposure).

With `CCCCCCCCCCCC(=O)Oc1ccc(-c2oc3cc(OC(=O)CCCCCCCCCCC)cc(OC(=O)CCCCCCCCCCC)c3c(=O)c2OC(=O)CCCCCCCCCCC)c(OC(=O)CCCCCCCCCCC)c1` [MORIN-PENTA-LAURATE], the “in dilution active up to 1: (calculated on active substance content, A.S.)” value in assay [1] (24 h exposure) was 12.8 Mio; in assay [1] (48 h exposure), 100 Mio; in assay [1] (72 h exposure) it was 100 Mio. Moreover, the “in dilution active up to 1: (microemulsion ME 1:100)” value in assay [1] (48 h exposure) and in assay [1] (72 h exposure) was 1 Mio in each case.

As to `CC(=O)O[C@H]1C(=O)[C@@]2(C)[C@H]([C@H](OC(=O)c3ccccc3)[C@]3(O)C[C@H](OC(=O)[C@H](O)[C@@H](NC(=O)c4ccccc4)c4ccccc4)C(C)=C1C3(C)C)[C@]1(OC(C)=O)CO[C@@H]1C[C@@H]2O` [TAXOL-A.S., Taxol (Paclitaxel), reference compound], the “in dilution active up to 1: (calculated on active substance content, A.S.)” value is on record as 6.4 Mio in assay [1] (24 h exposure), 25.6 Mio in assay [1] (48 h exposure) and 25.6 Mio in assay [1] (72 h exposure). Further, the Proliferation test % came to 1.3% in the assay with LEUKEMIA K 562 (10^-3); 1.6% in the assay on LEUKEMIA K 562 (10^-4); 7.1% in the assay on LEUKEMIA K 562 (10^-5); 2.3% in the assay with LEUKEMIA DAUDI-LINE (10^-3); 2.9% with LEUKEMIA DAUDI-LINE (10^-4); 69.6% with LEUKEMIA DAUDI-LINE (10^-5). The Proliferation test cpm came out at 679 cpm in the assay on LEUKEMIA K 562 (10^-3), 830 cpm in the assay on LEUKEMIA K 562 (10^-4), 552 cpm in the assay on LEUKEMIA DAUDI-LINE (10^-3) and 672 cpm in the assay on LEUKEMIA DAUDI-LINE (10^-4).
